Converted amounts (≈) assume the structure as drawn. Like-named read-outs stand apart in the source and are kept apart here.
Key:
[1] = Tissue distribution test in mice; format: in vivo; details: orally administrated 25 mg/kg
Procedure: (§1) 16 healthy male ICR mice with 18-22 g of body weight were used. Drugs were employed by intravenous or gavage administration, administration doses were 5 mg and 25 mg/kg, administration volume was 10 mL/kg. Fasted for 12 h before test with free access to water. Uniformly fed at 2 h after administration. 0.3 mL blood was drawn through mice post-glomus venous plexus according to set time points, placed in heparinized test tube, centrifuged at 3000 r/min for 10 min, separated plasma, frozen in refrigerator at −20° C. When detected, samples were treated according to plasma sample treatment method, drug concentration in plasma was determined by LC-MS method, and calculated its pharmacokinetic parameters.
After compound 1 was orally administrated to mice (25 mg/kg), the concentrations of the compound in […], lung, brain and plasma at different time was shown as FIG. 1.

[2] = test system: Mycobacterium tuberculosis strain H37Rv; test: Activity test for Mycobacterium tuberculosis (MIC, liquid medium, 96-well microplate); format: cell-based; details: for MIC: Mycobacterium tuberculosis, liquid medium, 37° C., read-out: Minimal inhibitory concentration for H37Rv; for activity for H37Rv, times as that of PA-824: relative to PA-824; for MIC for H37Rv, times as that of ethambutol: relative to ethambutol
Procedure: Tested Mycobacterium tuberculosis strain H37Rv was transferred to liquid medium, cultured for 2 weeks at 37° C., drew a little culture liquid of bacterium and placed into 4 mL liquid medium, added 10˜20 sterile glass bead of 2˜3 diameter, shook for 20˜30S, absolute-rest precipitated for 10˜20 min, aspirated bacterium suspension supernatant, turbidity was adjusted to 1 Maxwell unit with liquid medium, equivalent to 1×10^7CFU/mL for use. Each drug was dissolved to 1 mg/mL by adding an appropriate amount of DMSO, filtered through 0.22 μm filter. Again diluted to the required experimental concentration with liquid medium. The final concentration of test drugs were set as follows: 0.001 μg/mL, 0.002 μg/mL, 0.004 μg/mL, 0.008 μg/mL, 0.015 μg/mL, 0.03 μg/mL, 0.06 μg/mL, 0.12 μg/mL, 0.25 μg/mL, 0.5 μg/mL, 1 μg/mL, 2 μg/mL, 4 μg/mL, 8 μg/mL and 16 μg/mL, there totally are 15 concentration gradients. 100 μL of each above-mentioned drug solution was added to 96-well microplate, further added 100 μL […] bacteria liquid so that drug concentration could reach the set final concentration, cultured at 37° C. The same drug dilution was done in triplate in parallel, control group didn't added drug, inoculation amount was set to 100%, 10% and 1% respectively. Minimal inhibitory concentration (MIC) for Mycobacterium tuberculosis by each drug was observed, and compared with MIC results of first-line antituberculosis drug ethambutol and PA-824 in clinical research phase at the same time.

[3] = Drug metabolism test: pharmacokinetics in mice; format: in vivo, ICR mice; details: for MRT last: read-out: MRT0-t
Procedure: as §1

physchem = format: physicochemical; details: for solubility at 3 days: pH 1.2, simulated gastric fluid, thermodynamic from solid
Procedure: 3-5 mg tested compound was added to 0.5 mL pH=1.2 HCL aqueous solution, shook for 3 days in a shaker, samples were centrifuged at 10000 r/min for 5 min, aspirated […] supernatant to 50 mL volumetric flask, added water and metered volume to the mark to make sample solution; precisely weighted 2.6 mg sample to 50 mL volumetric flask, added an appropriate amount of methanol to dissolve. Added water and metered volume to the mark, shook up to give control sample solution. Loaded 20 μL sample solution and control sample solution respectively, tested for liquid phase. Calculated as follows: Solubility (mg/mL)=C(control)*25*A(sample)/A(control)
C(control): the concentration of control sample
A(sample): peak area of liquid phase of sample solution
A(control): peak area of liquid phase of control sample solution

[4] = male, ICR, mouse, IV (5 mg/kg), plasma
[5] = male, ICR, mouse, PO (25 mg/kg), plasma

O=C(CN1CCC(Oc2ccc(OC(F)(F)F)cc2)CC1)N[C@@H]1COc2nc([N+](=O)[O-])cn2C1 [Compound 1, (S)-N-(6,7-dihydro-2-nitro-5H-imidazo [2,1-b][1,3]oxazin-6-yl)-2-(4-(4-(trifluoromethoxy)phenoxy)piperid-1-yl)acetamide]
site of major distribution [1]: lung and spleen | tissue distribution property ([1]; FIG. 1): good tissue distribution property | MIC [2]: 0.03 µg/mL (≈ 0.0618 µM) | activity for H37Rv, times as that of PA-824 [2]: 4 times | MIC for H37Rv, times as that of ethambutol [2]: 16 times | CLz ([3]; IV (5 mg/kg)): 10.7 mL/min/kg | AUC(0-inf) [3, 4]: 7860 ng·h/mL | AUC(0-t) [3, 4]: 7850 ng·h/mL | Cmax [3, 4]: 3880 ng/mL | half-life [3, 4]: 2.8 h | MRT last [3, 4]: 3.6 h | AUC(0-inf) [3, 5]: 40200 ng·h/mL | AUC(0-t) [3, 5]: 40100 ng·h/mL | Cmax [3, 5]: 4790 ng/mL | Tmax [3, 5]: 1 h | half-life [3, 5]: 2.7 h | MRT last [3, 5]: 5 h | Vd ([3]; male, ICR, mouse, plasma, IV (5 mg/kg), read-out: Vz): 2.3 L/kg | bioavailability ([3]; male, ICR, mouse, plasma, PO 25 mg/kg vs IV 5 mg/kg, read-out: F (oral bioavailability)): 102% | water-solubility, times as that of PA-824 (physchem): 79 times | solubility at 3 days (physchem): 746 µg/mL (≈ 1540 µM)

O=C(CN1CCC(Oc2ccc(OC(F)(F)F)c(F)c2)CC1)N[C@@H]1COc2nc([N+](=O)[O-])cn2C1 [Compound 3, 2-(4-(3-fluoro-4-(trifluoromethoxy)phenoxy)piperid-1-yl)-N-((S)-6,7-dihydro-2-nitro-5H-imidazo[2,1-b][1,3]oxazin-6-yl)acetamide]
MIC [2]: 0.06 µg/mL (≈ 0.119 µM) | activity for H37Rv, times as that of PA-824 [2]: 2 times | MIC for H37Rv, times as that of ethambutol [2]: 8 times

CC(C)Oc1ccc(OC2CCN(CC(=O)N[C@@H]3COc4nc([N+](=O)[O-])cn4C3)CC2)cc1 [Compound 14]
MIC [2]: 0.06 µg/mL (≈ 0.131 µM) | activity for H37Rv, times as that of PA-824 [2]: 2 times | MIC for H37Rv, times as that of ethambutol [2]: 8 times

O=C(CN1CCC(Oc2ccc(OCCOC3CC3)cc2)CC1)N[C@@H]1COc2nc([N+](=O)[O-])cn2C1 [Compound 16, (S)-2-(4-(4-(2-(cyclopropoxy)ethoxy)phenoxy)piperid-1-yl)-N-(2-nitro-6,7-dihydro-5H-imidazo [2,1-b][1,3]oxazin-6-yl)acetamide]
MIC [2]: 0.03 µg/mL (≈ 0.0598 µM) | activity for H37Rv, times as that of PA-824 [2]: 4 times | MIC for H37Rv, times as that of ethambutol [2]: 16 times

O=C(CN1CCN(Cc2ccc(OC(F)(F)F)cc2)CC1)N[C@@H]1COc2nc([N+](=O)[O-])cn2C1 [Compound 17, (S)-N-(6,7-dihydro-2-nitro-5H-imidazo [2,1-b][1,3]oxazin-6-yl)-2-(4-(4-(trifluoromethoxy)benzyl)piperazin-1-yl)acetamide]
MIC [2]: 0.12 µg/mL (≈ 0.248 µM) | water-solubility, times as that of PA-824 (physchem): 155 times | solubility at 3 days (physchem): 1460 µg/mL (≈ 3010 µM)

O=C(CCN1CCC(Oc2ccc(OC(F)(F)F)cc2)CC1)N[C@@H]1COc2nc([N+](=O)[O-])cn2C1 [Compound 22, (S)-N-(6,7-dihydro-2-nitro-5H-imidazo [2,1-b][1,3]oxazin-6-yl)-3-(4-(4-(trifluoromethoxy)phenoxy)piperid-1-yl)propanamide]
MIC [2]: 0.06 µg/mL (≈ 0.12 µM) | activity for H37Rv, times as that of PA-824 [2]: 2 times | MIC for H37Rv, times as that of ethambutol [2]: 8 times | water-solubility, times as that of PA-824 (physchem): 72 times | solubility at 3 days (physchem): 677 µg/mL (≈ 1360 µM)

O=C(CCCN1CC(Oc2ccc(OC(F)(F)F)cc2)C1)N[C@@H]1COc2nc([N+](=O)[O-])cn2C1 [Compound 26, 4-(3-(4-(trifluoromethoxy)phenoxy)azetidin-1-yl)-N-((S)-6,7-dihydro-2-nitro-5H-imidazo [2,1-b][1,3]oxazin-6-yl)butyramide]
MIC [2]: 0.03 µg/mL (≈ 0.0618 µM) | activity for H37Rv, times as that of PA-824 [2]: 4 times | MIC for H37Rv, times as that of ethambutol [2]: 16 times | water-solubility, times as that of PA-824 (physchem): 90 times | solubility at 3 days (physchem): 846 µg/mL (≈ 1740 µM)

O=[N+]([O-])c1cn2c(n1)OC[C@@H](OCc1ccc(OC(F)(F)F)cc1)C2 [PA-824, reference compound]
MIC [2]: 0.12 µg/mL (≈ 0.334 µM) | solubility at 3 days (physchem): 9.4 µg/mL (≈ 26.2 µM)

CC[C@@H](CO)NCCN[C@@H](CC)CO [ethambutol, reference compound]
MIC [2]: 0.5 µg/mL (≈ 2.45 µM)

Source: patent publication US8563547B2, “(6,7-dihydro-2-nitro-5H-imidazol[2,1-b][1,3]oxazin-6-yl) amide compounds, preparation methods and uses thereof” (Shanghai Sun-Sail Pharmaceutical Science & Technology Co., …, priority 2010, dated 2013)
